Test results: PubChem BioAssay AID1996
Converted amounts (≈) assume the structure as drawn.

Settings: buffer; pH 7.4; 200.0 µM
Work on `CCOc1cc(C(N)=O)cc(Br)c1OCc1ccccc1` yielded a solubility kinetic of 0.0128 mg/mL (≈ 36.5 µM). For `CC(NS(=O)(=O)c1ccc(Cl)cc1)C(=O)N1CCOCC1` (centres undefined), the solubility kinetic was 0.0397 mg/mL (≈ 119 µM). For `O=C(NCCc1c[nH]c2ccccc12)c1cnccn1`, the solubility kinetic was > 0.0399 mg/mL. `COc1ccc(NC(=O)CN(C)Cc2cccs2)cc1Cl` gave a solubility kinetic of 0.0421 mg/mL (≈ 130 µM). For `COCCn1c(SCC(=O)N2CCOCC2)nnc1-c1ccco1`, the solubility kinetic was > 0.0529 mg/mL. `COc1ccc(C2SCC(=O)N2c2ccccc2)cc1` (centres undefined) gave a solubility kinetic of 0.0386 mg/mL (≈ 135 µM). Work on `COc1ccccc1-c1noc(CCCC(=O)NC2CCCC2)n1` yielded a solubility kinetic of 0.0444 mg/mL (≈ 135 µM). For `CC(C)CC(=O)N/N=C/c1c(N)n(C)c(=O)n(C)c1=O`, the solubility kinetic was > 0.0422 mg/mL. For `O=C1CSC(=Nc2ccc(F)cc2)N1`, the solubility kinetic was > 0.0315 mg/mL. For `O=C(NS(=O)(=O)Nc1ccccn1)c1c[nH]c2ccccc12`, the solubility kinetic was > 0.0474 mg/mL. For `O=C(CNC(=O)c1ccc2c(c1)OCO2)NCCOc1ccc(Cl)cc1`, the solubility kinetic was 0.0137 mg/mL (≈ 36.4 µM). With `S=c1[nH]ccn1-c1ccccc1Cl` the solubility kinetic was > 0.0316 mg/mL. For `CCOc1ccccc1NC(=O)c1ccccc1N(C)S(=O)(=O)c1ccc(C)cc1`, the solubility kinetic was 0.0032 mg/mL (≈ 7.54 µM). With `Cc1ccc(C)c(NC(=O)C(CC(=O)O)Cc2ccccc2)c1` (centres undefined) the solubility kinetic was > 0.0467 mg/mL. With `O=C(NNC(=O)c1ccc([N+](=O)[O-])cc1)c1ccc(NS(=O)(=O)c2cccs2)cc1` the solubility kinetic was > 0.067 mg/mL. `CCc1sc(C(=O)Nc2nc(-c3ccccn3)cs2)cc1C` gave a solubility kinetic of 0.0029 mg/mL (≈ 8.8 µM). For `O=C(CN1C(=O)NC2(CCCCC2)C1=O)Nc1ccc2c(c1)CCC2`, the solubility kinetic was 0.0051 mg/mL (≈ 14.9 µM). Molecule `COc1ccccc1CNC(=O)c1sccc1-c1ccccc1` has a solubility kinetic of 0.0144 mg/mL (≈ 44.5 µM). `O=C(NCCN1CCOCC1)c1cccc(Br)c1` gave a solubility kinetic of 0.0464 mg/mL (≈ 148 µM). Work on `CCN(CC(=O)Nc1ccc(NC(C)=O)cc1)C(=O)c1ccc(=O)[nH]c1` yielded a solubility kinetic of 0.0504 mg/mL (≈ 141 µM). `CCN(CC)C(=O)c1cccc2c1-c1ccccc1C2=O` showed a solubility kinetic of 0.0415 mg/mL (≈ 149 µM). Molecule `Cc1ccc2c(c1)N(Cc1cccc(C#N)c1)C=NS2(=O)=O` has a solubility kinetic of 0.0081 mg/mL (≈ 26 µM). With `O=C(OCC(=O)N1CCCC1)c1cccc(Br)c1` the solubility kinetic was > 0.0468 mg/mL. For `CN(CC(=O)Nc1cccc(F)c1)C(=O)c1cccc2ccccc12`, the solubility kinetic was > 0.0505 mg/mL. Molecule `COc1ccc(NC(=O)CN(C)C(=O)CCC2CCCC2)cc1` has a solubility kinetic of 0.0455 mg/mL (≈ 143 µM). With `COc1ccc(OCc2csc(N)n2)cc1` the solubility kinetic was > 0.0354 mg/mL. Molecule `O=C(COC(=O)c1cc(S(=O)(=O)N2CCCC2)ccc1O)Nc1ccccc1Br` has a solubility kinetic of 0.0096 mg/mL (≈ 19.9 µM). With `CC(C)OC(=O)/C(C#N)=C/c1cn(C)c2ccccc12` the solubility kinetic was 0.0039 mg/mL (≈ 14.5 µM). `Cn1c(=O)c2c(nc(Oc3ccccc3Cl)n2C)n(C)c1=O` showed a solubility kinetic of 0.016 mg/mL (≈ 49.9 µM). Molecule `COc1cc(CNc2ccc(N3CCCC3)cc2)cc(Cl)c1OC` has a solubility kinetic of 0.0097 mg/mL (≈ 28 µM). `Cc1ccc(SC(C)C(=O)NC(N)=O)c(C)c1` (centres undefined) gave a solubility kinetic of 0.0077 mg/mL (≈ 30.5 µM). Molecule `O=C(c1cccc(Cl)c1)N1CCCc2ccccc21` has a solubility kinetic of 0.0336 mg/mL (≈ 124 µM). With `O=C(NC1CCCCC1)c1cc(-c2ccc(F)cc2)on1` the solubility kinetic was < 0.0003 mg/mL. Molecule `O=C(COC(=O)c1cc(Cl)nc(Cl)c1)NC1CCCCCC1` has a solubility kinetic of 0.0059 mg/mL (≈ 17.1 µM). `CCC(C)n1c(O)c(C=NCC2CCCO2)c(=O)[nH]c1=S` (centres undefined) gave a solubility kinetic of 0.0383 mg/mL (≈ 123 µM). In the case of `Cc1ccc2nc(SCC(=O)NCc3cccs3)[nH]c2c1`, the solubility kinetic is reported as > 0.0476 mg/mL. Work on `O=C1CC(Cc2ccc(Cl)cc2)C(=O)N1c1cc(Cl)ccn1` (centres undefined) yielded a solubility kinetic of 0.0294 mg/mL (≈ 87.7 µM). `CCc1ccccc1NC(=O)NC1CCCCCCC1` gave a solubility kinetic of 0.0005 mg/mL (≈ 1.82 µM). For `Cc1cc(OC(F)F)ccc1NC(=S)NC1CCCC1`, the solubility kinetic was > 0.0451 mg/mL. `Cc1noc(C)c1COc1ccc(C(=O)Nc2ccccc2)cc1` gave a solubility kinetic of 0.0008 mg/mL (≈ 2.48 µM). For `CN(C(=O)c1ccnn1C)C1CCCN(Cc2ccccc2F)C1` (centres undefined), the solubility kinetic was > 0.0496 mg/mL. `O=S(=O)(NCc1ccccn1)c1ccc2ccccc2c1` showed a solubility kinetic of 0.0369 mg/mL (≈ 124 µM). For `CCc1sc(C(=O)Nc2ccc3nc(C)sc3c2)cc1C`, the solubility kinetic was 0.0016 mg/mL (≈ 5.06 µM). With `CCNC(=O)COC(=O)c1sccc1C` the solubility kinetic was > 0.0341 mg/mL. In the case of `CCOC(=O)Cc1csc(NC(=O)CCC(=O)O)n1`, the solubility kinetic is reported as > 0.0429 mg/mL. With `O=C(O)C1C2C=CC(C2)C1C(=O)Nc1ccccc1Br` (centres undefined) the solubility kinetic was > 0.0504 mg/mL. `COc1ccc(OC)c2c(C)cc(N3CCCCCC3)nc12` gave a solubility kinetic of 0.0063 mg/mL (≈ 21 µM). For `CC(=O)c1ccc2noc(-c3ccccc3)c2c1`, the solubility kinetic was 0.0318 mg/mL (≈ 134 µM). In the case of `CN(Cc1ccccc1)C(=O)COc1cccnc1[N+](=O)[O-]`, the solubility kinetic is reported as > 0.0452 mg/mL. In the case of `COc1ccc(C(=O)CSc2nccn2C)c(OC)c1`, the solubility kinetic is reported as > 0.0439 mg/mL. In the case of `CN(CC(=O)NCc1ccco1)S(=O)(=O)c1ccc(F)cc1`, the solubility kinetic is reported as > 0.049 mg/mL. For `CN(c1ccc(OCC(=O)NC2CCC(O)CC2)cc1)S(=O)(=O)c1ccc(Cl)cc1` (centres undefined), the solubility kinetic was > 0.0679 mg/mL. For `CCN(CC)S(=O)(=O)c1ccc(N2CCCC2)c(NC(=O)c2ccc([N+](=O)[O-])o2)c1`, the solubility kinetic was 0.0494 mg/mL (≈ 113 µM). Molecule `S=C(Nc1ccc(Oc2ccccc2)cc1)Nc1cccnc1` has a solubility kinetic of 0.03 mg/mL (≈ 93.3 µM). In the case of `O=C(CNc1cccc(F)c1)N1CCc2ccccc2C1`, the solubility kinetic is reported as 0.0084 mg/mL (≈ 29.5 µM). With `CSc1ccccc1NC(=O)Nc1cccc2ccccc12` the solubility kinetic was < 0.0003 mg/mL. For `O=C(COC(=O)c1ccc(O)cc1)Nc1ccc(S(=O)(=O)N2CCCC2)cc1`, the solubility kinetic was > 0.0607 mg/mL. Work on `CC(C)(C)N(Cc1ccccc1)C(=O)c1cccs1` yielded a solubility kinetic of 0.0017 mg/mL (≈ 6.22 µM). `Cc1nc(N2CCN(c3ccccc3F)CC2)[nH]c(=O)c1C` showed a solubility kinetic of 0.0146 mg/mL (≈ 48.3 µM).
